Experiments:
[1] = system: rabbit serum obtained by immunizing a rabbit with the SARS-CoV strain Frankfurt 1; format: binding; set-up: Binding of a rabbit serum to linear peptides / Binding of a rabbit serum to looped peptides / Rabbit serum linear peptides / Rabbit serum looped peptides / Binding of a rabbit serum to linear peptides of protein N of SARS-CoV Urbani (Rabbit serum linear peptides) / Binding of a rabbit serum to looped/cyclic peptides of protein N of SARS-CoV Urbani (Rabbit serum looped peptides): unit not given here
[2] = system: recombinant human anti-SARS-CoV antibody 03-018; format: binding; set-up: Binding of antibody 03-018 to linear peptides of the N protein of SARS-CoV Urbani / Binding of antibody 03-018 to looped/cyclic peptides of the N protein of SARS-CoV Urbani: unit not given here
[3] = system: antibodies in sera from SARS patients (sera 1a, 1b, 2, 6, 37, 62, London, SARS-yellow, SARS-green); format: binding, human; set-up: Binding of serum 6 to linear peptides of protein X1 of SARS-CoV Urbani / Binding of serum 37 to linear peptides of protein X1 of SARS-CoV Urbani / Binding of serum 6 to looped/cyclic peptide (PEPSCAN-ELISA) / Binding of serum 37 to looped/cyclic peptide (PEPSCAN-ELISA) / Binding of serum 37 to looped/cyclic peptides of protein X1 of SARS-CoV Urbani / Binding of serum 6 to linear peptides of protein X2 / Binding of serum 37 to linear peptides of protein X2 / Binding of serum 37 to looped/cyclic peptides of protein X2 of SARS-CoV Urbani / Binding of serum 6 to linear peptides of protein M of SARS-CoV Urbani / Binding of serum 37 to linear peptides of protein M of SARS-CoV Urbani / Binding of serum 6 to looped/cyclic peptides of protein M of SARS-CoV Urbani / Binding of serum 37 to looped/cyclic peptides of protein M of SARS-CoV Urbani / Binding of serum 6 to linear peptides of protein X3 of SARS-CoV Urbani / Binding of serum 37 to linear peptides of protein X3 of SARS-CoV Urbani / Binding of serum 37 to looped/cyclic peptides of protein X3 of SARS-CoV Urbani / Binding of serum 6 to linear peptides of protein X4 of SARS-CoV Urbani / Binding of serum 37 to linear peptides of protein X4 of SARS-CoV Urbani / Binding of serum 37 to looped/cyclic peptides of protein X4 of SARS-CoV Urbani / Binding of serum 6 to linear peptides of protein X5 of SARS-CoV Urbani / Binding of serum 37 to linear peptides of protein X5 of SARS-CoV Urbani / Binding of serum 37 to looped/cyclic peptides of protein X5 of SARS-CoV Urbani / Binding of serum 6 to linear peptides of protein N of SARS-CoV Urbani / Binding of serum 37 to linear peptides of protein N of SARS-CoV Urbani / Binding of serum 6 to linear peptide (PEPSCAN-ELISA) / Binding of serum 1a to looped/cyclic peptides of protein N of SARS-CoV Urbani / Binding of serum 1b to looped/cyclic peptides of protein N of SARS-CoV Urbani / Binding of serum 2 to looped/cyclic peptides of protein N of SARS-CoV Urbani / Binding of serum 6 to looped/cyclic peptides of protein N of SARS-CoV Urbani / Binding of serum 37 to looped/cyclic peptides of protein N of SARS-CoV Urbani / Binding of serum 62 to looped/cyclic peptides of protein N of SARS-CoV Urbani / Binding of serum London to looped/cyclic peptides of protein N of SARS-CoV Urbani / Binding of serum SARS-green to looped/cyclic peptides of protein N of SARS-CoV Urbani: unit not given here
[4] = system: control sera (pooled serum of ten healthy LUMC hospital workers; commercial negative donor pooled serum from the Dutch bloodbank); format: binding, human; set-up: Binding of Control serum LUMC to linear peptides / Binding of Control serum Blood-bank to linear peptides / Binding of Control serum LUMC to looped peptides / Binding of Control Serum Blood-Bank to Looped peptides / Binding of Control serum LUMC to linear peptides of the protein M of SARS-CoV Urbani / Binding of Control serum Blood-bank to linear peptides of the protein M of SARS-CoV Urbani / Binding of Control serum LUMC to looped peptides of the protein M of SARS-CoV Urbani / Binding of Control Serum Blood-Bank to Looped peptides of the protein M of SARS-CoV Urbani: unit not given here

Sequence	Binding of a rabbit serum to linear peptides of protein N of SARS-CoV Urbani (Rabbit serum linear peptides) [1]	Binding of a rabbit serum to looped/cyclic peptides of protein N of SARS-CoV Urbani (Rabbit serum looped peptides) [1]	Binding of antibody 03-018 to linear peptides of the N protein of SARS-CoV Urbani [2]	Binding of antibody 03-018 to looped/cyclic peptides of the N protein of SARS-CoV Urbani [2]	Binding of serum 1a to looped/cyclic peptides of protein N of SARS-CoV Urbani [3]	Binding of serum 1b to looped/cyclic peptides of protein N of SARS-CoV Urbani [3]	Binding of serum 2 to looped/cyclic peptides of protein N of SARS-CoV Urbani [3]	Binding of serum 6 to looped/cyclic peptides of protein N of SARS-CoV Urbani [3]	Binding of serum 37 to looped/cyclic peptides of protein N of SARS-CoV Urbani [3]	Binding of serum 62 to looped/cyclic peptides of protein N of SARS-CoV Urbani [3]	Binding of serum London to looped/cyclic peptides of protein N of SARS-CoV Urbani [3]	Binding of serum SARS-green to looped/cyclic peptides of protein N of SARS-CoV Urbani [3]	Binding of serum SARS-yellow to looped/cyclic peptides of protein N of SARS-CoV Urbani [3]	Binding of serum 1a to linear peptides of protein N of SARS-CoV Urbani [3]	Binding of serum 1b to linear peptides of protein N of SARS-CoV Urbani [3]	Binding of serum 2 to linear peptides of protein N of SARS-CoV Urbani [3]	Binding of serum 6 to linear peptides of protein N of SARS-CoV Urbani [3]	Binding of serum 37 to linear peptides of protein N of SARS-CoV Urbani [3]	Binding of serum 62 to linear peptides of protein N of SARS-CoV Urbani [3]	Binding of serum London to linear peptides of protein N of SARS-CoV Urbani [3]	other results
LLLLDRLNQLESKVS	0.1	0.0	0.2	0.2	0.2	0.1	0.2	0.1	0.4	0.2	0.3	0.2	0.0	–	–	–	–	–	–	–	Binding of serum 1a to linear peptide (PEPSCAN-ELISA) [3]: 0.2; Binding of serum 1b to linear peptide (PEPSCAN-ELISA) [3]: 0.1; Binding of serum 2 to linear peptide (PEPSCAN-ELISA) [3]: 0.2; Binding of serum 6 to linear peptide (PEPSCAN-ELISA) [3]: 0.1; Binding of serum 37 to linear peptide (PEPSCAN-ELISA) [3]: 0.7; Binding of serum 62 to linear peptide (PEPSCAN-ELISA) [3]: 0.4; Binding of serum London to linear peptide (PEPSCAN-ELISA) [3]: 0.7; Binding of serum SARS-green to linear peptide (PEPSCAN-ELISA) [3]: 0.4; Binding of serum SARS-yellow to linear peptide (PEPSCAN-ELISA) [3]: 0.4; Binding of Control Serum Blood-Bank to Looped peptides [4]: 0.4; Binding of Control serum Blood-bank to linear peptides [4]: 0.7; Binding of Control serum LUMC to linear peptides [4]: 0.6; Binding of Control serum LUMC to looped peptides [4]: 0.4
LLNKHIDAYKTFPPT	0.2	0.4	0.1	0.2	0.3	0.1	0.3	0.2	0.4	0.3	0.3	0.3	0.4	0.2	0.1	0.2	0.2	0.7	0.6	0.5	Binding of serum SARS-green to linear peptides of protein N of SARS-CoV Urbani [3]: 0.5; Binding of serum SARS-yellow to linear peptides of protein N of SARS-CoV Urbani [3]: 0.6; Control Serum Blood-Bank Looped peptides [4]: 0.5; Control serum Blood-bank linear peptides [4]: 0.6; Control serum LUMC linear peptides [4]: 0.7; Control serum LUMC looped peptides [4]: 0.5
LPQRQKKQPTVTLLP	0.2	0.7	0.1	0.3	–	–	–	–	–	–	–	–	–	0.2	0.2	0.3	0.1	0.7	0.7	0.5	Binding of serum SARS-green to linear peptides of protein N of SARS-CoV Urbani [3]: 0.4; Binding of serum SARS-yellow to linear peptides of protein N of SARS-CoV Urbani [3]: 0.7; Recognition of the peptide by sera of SARS-CoV infected individuals, and form (linear, looped/cyclic) in which it is recognized [3]: recognized in looped/cyclic form; Control Serum Blood-Bank Looped peptides [4]: 0.8; Control serum Blood-bank linear peptides [4]: 0.8; Control serum LUMC linear peptides [4]: 0.7; Control serum LUMC looped peptides [4]: 0.7
LPYGANKEGIVWVAT	0.2	0.6	0.1	0.2	0.5	0.3	0.6	0.4	0.9	0.8	0.5	0.4	0.4	0.2	0.2	0.3	0.2	0.7	0.7	0.5	Binding of serum SARS-green to linear peptides of protein N of SARS-CoV Urbani [3]: 0.3; Binding of serum SARS-yellow to linear peptides of protein N of SARS-CoV Urbani [3]: 0.6; Binding of Control Serum Blood-Bank to Looped peptides [4]: 0.5; Binding of Control serum Blood-bank to linear peptides [4]: 0.7; Binding of Control serum LUMC to linear peptides [4]: 0.6; Binding of Control serum LUMC to looped peptides [4]: 0.6
LTQHGKEELRFPRGQ	0.1	0.4	0.1	0.2	0.4	0.2	0.4	0.3	0.6	0.4	0.4	0.3	0.4	0.2	0.1	0.3	0.2	0.6	0.7	0.4	Binding of serum SARS-green to linear peptides of protein N of SARS-CoV Urbani [3]: 0.3; Binding of serum SARS-yellow to linear peptides of protein N of SARS-CoV Urbani [3]: 0.6; Binding of Control Serum Blood-Bank to Looped peptides [4]: 0.6; Binding of Control serum Blood-bank to linear peptides [4]: 0.8; Binding of Control serum LUMC to linear peptides [4]: 0.6; Binding of Control serum LUMC to looped peptides [4]: 0.6
